# Laboratory results from patent US20030130180A1, “Utilization of an aminopeptidase inhibitor” (priority 2000, published 2003).
# Tests used:
# [1] = system: tumor cells; settings: cited from earlier work; for tumor cell invasion: in vitro, matrigel analytic system
# [2] = system: tumor cells and immune cells; assay: Cell-biological experiments on blocking of polarization of tumor cells and immune cells; type: cell-based; settings: general statement
# Text: By means of a method of simultaneously detecting a number of cell surface proteins, it has been established that aminopeptidases will control cell surface proteins which are not part of the class of proteolytic enzymes, but belong to the class of the adhesion molecules, which adhesion molecules—in a certain combination and geometric array—will be decisive for the polarization of the cells. Consequently, aminopeptidases appear to be superordinate control proteins in a protein network consisting of up to 30 different cell surface protein species which—through specific interaction with one another—will control polarization of tumor cells and other invasive cells such as immune cells and which are listed above. The inhibition of at least one aminopeptidase will lead to a reproducible modification of surface protein combinations on the cell surface which will always also involve a modification of CD13. […] The term polarization as used here shall denote a process in which a primarily spherical cell will transition into an oblong, elongated cell shape, via various intermediate states. This process which constitutes a change of shape controlled by the complex protein network is the prerequisite for cell migration, since only cells of oblong shape are capable of migrating. The polarization process therefore needs to precede all cell migration processes, including invasion. […]
# [3] = system: tumor cells; settings: cited from earlier work
Structure (SMILES),formation of cell extensions [1],tumor cell invasion [1],modification of the surface proteins of the protein network [2],degradation of type IV collagen [3],invasion of tumor cells [3],tumor cell adhesion and migration to the extracellular matrix [3]
CCc1cccc(CC)c1N1C(=O)Cc2ccccc2C1=O [PIQ-22],suppression of the formation of cell extensions,inhibition of the invasion,,,,
CC(C)C[C@H](NC(=O)[C@@H](O)[C@H](N)Cc1ccccc1)C(=O)O [bestatin],no effect,do not have an effect,leading to a modification of the surface proteins of the protein network,capable of preventing degradation of the type IV collagen,preventing the invasion of tumor cells,does not have any influence
